{"source": "patent US20070276013A1", "about": "“Active Substance Combinations with Insecticidal Properties” (priority 2004, published 2007)", "format_in_all_cases": "in vivo", "key": {"[1]": {"tested_on": "Phaedon cochleariae larvae", "assay": "Phaedon cochleariae larvae test, treated cabbage leaves", "settings": "144 h, after 6 d", "from_the_text": "(§1) The action to be expected for a given combination of two active substance can be calculated as follows according to S. R. Colby, Weeds 15 (1967), 20-22:\n(§2) If • X stands for the mortality rate expressed in % of the untreated control upon the use of active substance A at an application amount of m g/ha or in a concentration of m ppm, • Y stands for the mortality rate expressed in % of the untreated control upon the use of active substance B at an application amount of n g/ha or in a concentration of n ppm, and • E stands for the mortality rate expressed in % of the untreated control upon the use of active substances A and B at an application amount of m and n g/ha or in a concentration of m and n ppm, then [formula]\n(§3) If the actual insecticidal mortality rate is greater than calculated, then the combination is […] in its mortality; that is to say, a synergistic effect is present. In this case the mortality rate that is actually observed must be greater than the value for the expected mortality rate (E) calculated from the formula presented above.\n(§4) To produce a suitable active substance preparation, one mixes 1 part by weight of active substance with the listed amount of solvent and emulsifier and dilutes the concentrate with water containing an emulsifier at the desired concentration.\nCabbage leaves (Brassica oleracea) are treated by immersion in the active substance preparation of the desired concentration and filled with mustard beetle larvae (Phaedon cochleariae) for as long as the leaves are still damp.\nAfter […] the mortality in % is determined. In the process, 100% means that all beetle larvae were killed; 0% means that no beetle larvae were killed. One determines the determined mortality rate according to the Colby formula (see page 1)."}, "Myzus persicae": {"tested_on": "Myzus persicae", "assay": "Myzus persicae test, immersion of infested cabbage leaves", "from_the_text": "as §1, §2, §3, §4\nCabbage leaves (Brassica oleracea) that are severely afflicted by the green peach aphid (Myzus persicae) are treated by immersion in the active substance preparation of the desired concentration.\nAfter […] the mortality in % is determined. In the process, 100% means that all green peach aphids were killed; 0% means that no green peach aphids were killed. One calculates the determined mortality rate according to the Colby formula (see page 1)."}, "Heliothis armigera": {"tested_on": "Heliothis armigera", "assay": "Heliothis armigera test, treated cotton leaves with larvae", "settings": "Helicoverpa armigera, 144 h, after 6 d", "from_the_text": "as §1, §2, §3, §4\nCotton leaves (Gossypium hirsutum) are treated by immersion in the active substance preparation of the desired concentration and filled with cotton bollworm larvae (Heliothis armigera) for as long as the leaves are still damp.\n(§5) After […] the mortality in % is determined. In the process, 100% means that all larvae were killed; 0% means that no larvae were killed. One determines the determined mortality rate according to the Colby formula (see page 1)."}, "Aphis gossypii": {"tested_on": "Aphis gossypii", "assay": "Aphis gossypii test, immersion of infested cotton leaves", "settings": "24 h, after 1 d", "from_the_text": "as §1, §2\nas §3, with “above. […]” for “above.”\nAfter […] the mortality in % is determined. […] One calculates the determined mortality rate according to the Colby formula (see page 1)."}, "Spodoptera exigua": {"tested_on": "Spodoptera exigua", "assay": "Spodoptera exigua test, treated cabbage leaves", "settings": "144 h, after 6 d", "from_the_text": "as §1, §2\nas §3, with “above. […]” for “above.”\n(§6) After […] the mortality in % is determined. […] One determines the determined mortality rate according to the Colby formula (see page 1)."}, "Spodoptera frugiperda": {"tested_on": "Spodoptera frugiperda", "assay": "Spodoptera frugiperda test, treated cabbage leaves", "settings": "72 h, after 3 d", "from_the_text": "as §1, §2\nas §3, with “above. […]” for “above.”\nas §6"}, "[2]": {"tested_on": "Plutella xylostella (resistant strain)", "assay": "Plutella xylostella test (resistant strain), treated cabbage leaves", "settings": "144 h, after 6 d", "from_the_text": "as §1, §2, §3, §4\n(§7) Cabbage leaves (Brassica oleracea) are treated by immersion in the active substance preparation of the desired concentration and filled with cabbage moth larvae (Plutella xylostella) for as long as the leaves are still damp.\nas §5"}, "[3]": {"tested_on": "Plutella xylostella (sensitive strain)", "assay": "Plutella xylostella test (sensitive strain), treated cabbage leaves", "settings": "144 h, after 6 d, normal sensitivity", "from_the_text": "as §1, §2, §3, §4, §7, §5"}}, "note": "Values joined by “and” are separate entries in the source; they are usually repeats but may differ in a detail not shown here. Identical values can stand only once.", "data": [{"smiles": "Cc1c(COC(=O)C2C(/C=C(\\Cl)C(F)(F)F)C2(C)C)cccc1-c1ccccc1", "note": "(stereo not drawn) [Bifenthrin]", "values": [{"measurement": "mortality at 0.8 ppm", "setting": "[1]; 0.8 ppm", "value": 35, "unit": "%"}, {"measurement": "mortality at 0.16 ppm", "setting": "Myzus persicae; Myzus persicae, 144 h, read-out: Mortality in % after 6 d, 0.16 ppm, after 6 d", "value": 0, "unit": "%"}]}, {"smiles": "CC1(C)C(C=C(Cl)Cl)C1C(=O)OC(C#N)c1ccc(F)c(Oc2ccccc2)c1", "note": "(stereo not drawn) [Beta-cyfluthrin, Betacyfluthrin]", "values": [{"measurement": "mortality at 0.12 ppm", "setting": "Heliothis armigera", "value": 0, "unit": "%"}, {"measurement": "mortality at 0.12 ppm", "setting": "[1]; 0.12 ppm", "value": 15, "unit": "%"}, {"measurement": "mortality at 0.12 ppm", "setting": "Aphis gossypii; 0.12 ppm", "value": 5, "unit": "%"}, {"measurement": "mortality at 0.6 ppm", "setting": "Spodoptera exigua; 0.6 ppm", "value": 25, "unit": "%"}, {"measurement": "mortality at 0.12 ppm", "setting": "Spodoptera frugiperda; 0.12 ppm", "value": 5, "unit": "%"}, {"measurement": "mortality at 0.6 ppm", "setting": "[2]", "value": 35, "unit": "%"}, {"measurement": "mortality at 0.024 ppm", "setting": "[3]", "value": 10, "unit": "%"}, {"measurement": "mortality at 0.12 ppm", "setting": "Myzus persicae; Myzus persicae, 144 h, read-out: Mortality in % after 6 d, 0.12 ppm, after 6 d", "value": 0, "unit": "%"}]}, {"smiles": "N#C/N=C1\\SCCN1Cc1ccc(Cl)nc1", "note": "[Thiacloprid, thiacloprid]", "values": [{"measurement": "mortality at 0.12 ppm", "setting": "Heliothis armigera", "value": 0, "unit": "%"}, {"measurement": "mortality at 0.6 ppm", "setting": "Heliothis armigera; 0.6 ppm", "value": 0, "unit": "%"}, {"measurement": "mortality at 3 ppm", "setting": "[1]; 3 ppm", "value": 15, "unit": "%"}, {"measurement": "mortality at 20 ppm", "setting": "[1]; 20 ppm", "value": 40, "unit": "%"}, {"measurement": "mortality at 0.6 ppm", "setting": "Aphis gossypii; 0.6 ppm", "value": 35, "unit": "%"}, {"measurement": "mortality at 15 ppm", "setting": "Spodoptera exigua; 15 ppm", "value": 0, "unit": "%"}, {"measurement": "mortality at 0.6 ppm", "setting": "Spodoptera frugiperda; 0.6 ppm", "value": 0, "unit": "%"}, {"measurement": "mortality at 3 ppm", "setting": "[2]; 3 ppm", "value": 0, "unit": "%"}, {"measurement": "mortality at 15 ppm", "setting": "[2]; 15 ppm", "value": 10, "unit": "%"}, {"measurement": "mortality at 0.6 ppm", "setting": "[3]; 0.6 ppm", "value": 0, "unit": "%"}, {"measurement": "Mortality in % after 6 d", "setting": "Myzus persicae; 0.8 ppm, after 6 d", "value": "0% and 10%"}, {"measurement": "mortality at 0.6 ppm", "setting": "Myzus persicae; Myzus persicae, 144 h, read-out: Mortality in % after 6 d, 0.6 ppm, after 6 d", "value": 35, "unit": "%"}]}, {"smiles": "CC1(C)[C@H](C(=O)O[C@H](C#N)c2cccc(Oc3ccccc3)c2)[C@@H]1C=C(Br)Br", "note": "[Deltamethrin]", "values": [{"measurement": "mortality at 0.16 ppm", "setting": "[1]", "value": 30, "unit": "%"}]}, {"smiles": "CC1(C)C(/C=C(\\Cl)C(F)(F)F)C1C(=O)OC(C#N)c1cccc(Oc2ccccc2)c1", "note": "(stereo not drawn) [Lambda-cyhalothrin]", "values": [{"measurement": "mortality at 0.12 ppm", "setting": "Heliothis armigera", "value": 55, "unit": "%"}, {"measurement": "mortality at 0.6 ppm", "setting": "[2]", "value": 40, "unit": "%"}, {"measurement": "mortality at 0.024 ppm", "setting": "[3]", "value": 40, "unit": "%"}]}, {"smiles": "CC1(C)C(C=C(Cl)Cl)C1C(=O)OC(C#N)c1cccc(Oc2ccccc2)c1", "note": "(stereo not drawn) [Alpha-cypermethrin, Alpha-Cypermethrin]", "values": [{"measurement": "mortality at 0.16 ppm", "setting": "[1]", "value": 5, "unit": "%"}]}]}
